Source: ChEMBL document CHEMBL6071129, “Strategies that regulate Hippo signaling pathway for novel anticancer therapeutics” (Eur J Med Chem, 2024)

Key:
NCI-H1975 [1] = assay: Antiproliferative activity against human NCI-H1975 cells incubated for 48 hrs by SRB assay; type: functional, cell-based; details: NCI-H1975, 48 h
NCI-H460 = assay: Antiproliferative activity against human NCI-H460 cells incubated for 48 hrs by SRB assay; type: functional, cell-based; details: NCI-H460, 48 h
[2] = test system: Lewis lung carcinoma cell line; assay: Antiproliferative activity against mouse Lewis lung carcinoma cell line incubated for 48 hrs by SRB assay; type: functional, cell-based
[3] = Antiproliferative activity against CMT47 cells incubated for 48 hrs; type: functional; details: Canis lupus familiaris, read-out: ED50 (the source's name)
HuCCT-1 = assay: Antiproliferative activity against human HuCCT-1 cells incubated for 24 hrs by WST-1 assay; type: functional, cell-based; details: HuCCT-1, 24 h
[4] = Antiproliferative activity against CMT9 cells incubated for 48 hrs; type: functional; details: Canis lupus familiaris, read-out: ED50 (the source's name)
[5] = Inhibition of cell invasion in human colorectal cancer cells; type: functional
[6] = Inhibition of His-tagged TEAD2 (unknown origin) to YAP (unknown origin) protein-protein interaction preincubated for 30 mins followed by biotinylated YAP addition and measured after 60 mins by TR-FRET assay; parameters: species or system Homo sapiens
[7] = test system: Transcriptional enhancer factor TEF-1-Lipid; assay: Inhibition of His-tagged TEAD1 (unknown origin) to lipid (unknown origin) interaction preincubated for 30 mins followed by biotinylated lipid addition and measured after 60 mins by TR-FRET assay; parameters: species or system Homo sapiens
[8] = Inhibition of His-tagged TEAD1 (unknown origin) to TAZ (unknown origin) protein-protein interaction preincubated for 30 mins followed by biotinylated YAP addition and measured after 60 mins by TR-FRET assay; parameters: species or system Homo sapiens
[9] = Inhibition of His-tagged TEAD1 (unknown origin) to YAP (unknown origin) protein-protein interaction preincubated for 30 mins followed by biotinylated YAP addition and measured after 60 mins by TR-FRET assay; parameters: species or system Homo sapiens
[10] = Inhibition of His-tagged TEAD2 (unknown origin) to TAZ (unknown origin) protein-protein interaction preincubated for 30 mins followed by biotinylated YAP addition and measured after 60 mins by TR-FRET assay; parameters: species or system Homo sapiens
[11] = Inhibition of His-tagged TEAD4 (unknown origin) to TAZ (unknown origin) protein-protein interaction preincubated for 30 mins followed by biotinylated YAP addition and measured after 60 mins by TR-FRET assay; parameters: species or system Homo sapiens
[12] = Inhibition of His-tagged TEAD4 (unknown origin) to YAP (unknown origin) protein-protein interaction preincubated for 30 mins followed by biotinylated YAP addition and measured after 60 mins by TR-FRET assay; parameters: species or system Homo sapiens
[13] = test system: Transcriptional enhancer factor TEF-4-Lipid; assay: Inhibition of His-tagged TEAD2 (unknown origin) to lipid (unknown origin) interaction preincubated for 30 mins followed by biotinylated lipid addition and measured after 60 mins by TR-FRET assay; parameters: species or system Homo sapiens
[14] = test system: Transcriptional enhancer factor TEF-3-Lipid; assay: Inhibition of His-tagged TEAD4 (unknown origin) to lipid (unknown origin) interaction preincubated for 30 mins followed by biotinylated lipid addition and measured after 60 mins by TR-FRET assay; parameters: species or system Homo sapiens
[15] = Inhibition of His-tagged TEAD3 (unknown origin) to YAP (unknown origin) protein-protein interaction preincubated for 30 mins followed by biotinylated YAP addition and measured after 60 mins by TR-FRET assay; parameters: species or system Homo sapiens
[16] = Inhibition of His-tagged TEAD3 (unknown origin) to TAZ (unknown origin) protein-protein interaction preincubated for 30 mins followed by biotinylated YAP addition and measured after 60 mins by TR-FRET assay; parameters: species or system Homo sapiens
[17] = test system: Transcriptional enhancer factor TEF-5-Lipid; assay: Inhibition of His-tagged TEAD3 (unknown origin) to lipid (unknown origin) interaction preincubated for 30 mins followed by biotinylated lipid addition and measured after 60 mins by TR-FRET assay; parameters: species or system Homo sapiens
[18] = Antiproliferative activity against human HCA46 cells incubated for 48 hrs by MTT assay; type: functional, cell-based; details: HCA46, 48 h
HCT-116 = assay: Antiproliferative activity against human HCT-116 cells incubated for 48 hrs by MTT assay; type: functional, cell-based; details: HCT-116, 48 h
[19] = Antiproliferative activity against human A2780/CP70 cells incubated for 48 hrs by MTT assay; type: functional, cell-based; details: A2780/CP70, 48 h
HT-29 = assay: Antiproliferative activity against human HT-29 cells incubated for 48 hrs by MTT assay; type: functional, cell-based; details: HT-29, 48 h
A2780 = assay: Antiproliferative activity against human A2780 cells incubated for 48 hrs by MTT assay; type: functional, cell-based; details: A2780, 48 h
[20] = Inhibition of TEAD (unknown origin) by YAP reporter assay; parameters: species or system Homo sapiens
NCI-H2052 = assay: Antiproliferative activity against human NCI-H2052 cells; type: functional, cell-based
[21] = Inhibition of TEAD (unknown origin) to YAP (unknown origin) protein-protein interaction expressed in HEK293T cells transfected with 8XGTIIC-Luciferase and CMV-betagalactosidase incubated for 24 hrs by luciferase reporter assay; type: cell-based, Homo sapiens
NCI-H441 = assay: Antiproliferative activity against human NCI-H441 cells incubated for 48 hrs by SRB method; type: functional, cell-based; details: NCI-H441, 48 h
NCI-H1975 [22] = assay: Antiproliferative activity against human NCI-H1975 cells incubated for 48 hrs by SRB method; type: functional, cell-based; details: NCI-H1975, 48 h
A549 = assay: Antiproliferative activity against human A549 cells incubated for 48 hrs by SRB method; type: functional, cell-based; details: A549, 48 h
MDA-MB-231 = assay: Antiproliferative activity against human MDA-MB-231 cells incubated for 96 hrs by MTT assay; type: functional, cell-based; details: MDA-MB-231, 96 h
MDA-MB-453 = assay: Antiproliferative activity against human MDA-MB-453 cells incubated for 96 hrs by MTT assay; type: functional, cell-based; details: MDA-MB-453, 96 h
[23] = Antiproliferative activity against human HBC5 cells incubated for 96 hrs by MTT assay; type: functional, cell-based; details: HBC5, 96 h
[24] = Antiproliferative activity against human HBC4 cells incubated for 96 hrs by MTT assay; type: functional, cell-based; details: HBC4, 96 h

## C[C@H]1[C@H](OC(=O)CCC(=O)O)O[C@@H]2O[C@@]3(C)CC[C@H]4[C@H](C)CC[C@@H]1[C@@]24OO3 [ARTESUNATE]
NCI-H1975 [1]
  IC50: 4.02 µM
NCI-H460
  IC50: 16.1 µM
[2]
  IC50: 11.1 µM

## CC(C)c1c(C(=O)Nc2ccccc2)c(-c2ccccc2)c(-c2ccc(F)cc2)n1CC[C@@H](O)C[C@@H](O)CC(=O)O [ATORVASTATIN]
[3]
  EC50: 7 µM
HuCCT-1
  IC50: < 50 µM
[4]
  EC50: 23.5 µM

## N#Cc1ccc2[nH]cc(CCCCN3CCN(c4ccc5oc(C(N)=O)cc5c4)CC3)c2c1 [VILAZODONE]
[5]
  inhibition (INH): 36%

## CCOC(=O)c1cnn2c(=O)cc(-c3ccc(C(F)(F)F)cc3)[nH]c12
[6]
  IC50: 3000 nM
[7]
  IC50: 1100 nM
[8]
  IC50: 1300 nM
[9]
  IC50: > 5 µM
[10]
  IC50: 2000 nM
[11]
  IC50: 20 µM
[12]
  IC50: > 50 µM
[13]
  IC50: 1600 nM
[14]
  IC50: > 50 µM
[15]
  IC50: 1400 nM
[16]
  IC50: 1300 nM
[17]
  IC50: 700 nM

## O=C1C=C(Nc2ccc(O)cc2)C(=O)c2ccccc21
[18]
  IC50: 19.8 µM
HCT-116
  IC50: 4.17 µM
[19]
  IC50: 5.35 µM
HT-29
  IC50: 2680 nM
A2780
  IC50: 3.8 µM

## COC(=O)c1cc(S(N)(=O)=O)ccc1NC1CCCCC1
[20]
  IC50: 458 nM
NCI-H2052
  IC50: > 3000 nM

## Nc1nonc1-n1nnc(C(=O)N/N=C2\C(=O)Nc3ccccc32)c1-c1ccc(Cl)c(Cl)c1
[21]
  IC50: 6.5 µM

## Cc1cc2c(C(C)C)c(O)c(O)c(C=O)c2c(O)c1-c1c(C)cc2c(C(C)C)c(O)c(O)c(C=O)c2c1O
NCI-H441
  IC50: 19.9 µM
NCI-H1975 [22]
  IC50: 6.77 µM
A549
  IC50: 10 µM

## CC(NC(=O)c1cc2nc(N(C)C)n(-c3ccc(Br)cc3)c2s1)c1ccccn1 (stereo not given)
[20]
  IC50: 391 nM
NCI-H2052
  IC50: 2030 nM

## Cc1ccc(Nc2nccc(N(C)c3ccc4c(C)n(C)nc4c3)n2)cc1S(N)(=O)=O [PAZOPANIB]
MDA-MB-231
  IC50: ≤ 10 µM
MDA-MB-453
  IC50: ≤ 10 µM
[23]
  IC50: ≤ 10 µM

## CC(C)n1c(/C=C/[C@H](O)C[C@H](O)CC(=O)O)c(-c2ccc(F)cc2)c2ccccc21
[24]
  IC50: < 10 µM
[3]
  EC50: 0.95 µM
MDA-MB-231
  IC50: < 10 µM
[23]
  IC50: < 10 µM
[4]
  EC50: 9.95 µM
